# Laboratory results reported in patent US20230365546A1, “5-SUBSTITUTED INDOLE 3-AMIDE DERIVATIVES, PREPARATION METHOD AND USE THEREOF” (ORIGIANT PHARMACEUTICAL CO., LTD, priority 2020, published 2023).
# Columns and labels:
# Experiment in all cases: Kinase Profiler 10 μM panel
# [1] = target: PI3 Kinase (p110a(H1047R)/p85a)(h) (Homo sapiens (Human), UniProt P42336, H1047R)
# Method: (§1) In vitro kinase assays were conducted using Kinase Profiler services provided by Eurofins. The experimental method was as follows: the small molecule compound to be tested (0.001-10 μM), the protein kinase to be tested were incubated with a buffer containing substrate, 10 mM magnesium acetate, and [γ-^33P-ATP], the reaction was started by adding Mg\TPmix, after incubation for a period of time at room temperature, a 3% phosphate solution was added to the buffer to stop the reaction. Subsequently, 10 μL of the reaction mixture was quantitatively pipetted onto P30 filter paper, which was washed three times with 75 mM phosphate solution and then once with methanol. The P30 filter paper was air-dried and scintillation fluid was added for scintillation counting.
# Abl(h) = Abl(h) (Homo sapiens (Human), UniProt P00519)
# Method: as §1
# [2] = target: PI3 Kinase (p110b/p85a)(m) (Mus musculus (Mouse), UniProt Q8BTI9)
# Method: as §1
# GRK2(h) = GRK2(h) (Homo sapiens (Human), UniProt P25098)
# Method: as §1
# GRK3(h) = GRK3(h) (Homo sapiens (Human), UniProt P35626)
# Method: as §1
# ALK6(h) = ALK6(h) (Homo sapiens (Human), UniProt O00238)
# Method: as §1
# Aurora-A(h) = Aurora-A(h) (Homo sapiens (Human), UniProt O14965)
# Method: as §1
# PKBβ(h) = PKBβ(h) (Homo sapiens (Human), UniProt P31751)
# Method: as §1
# HPK1(h) = HPK1(h) (Homo sapiens (Human), UniProt Q92918)
# Method: as §1
# BIKe(h) = BIKe(h) (Homo sapiens (Human), UniProt Q9NSY1)
# Method: as §1
# PKCβI(h) = PKCβI(h) (Homo sapiens (Human), UniProt P05771)
# Method: as §1
# IKKϵ(h) = IKKϵ(h) (Homo sapiens (Human), UniProt Q14164)
# Method: as §1
# PKG1β(h) = PKG1β(h) (Homo sapiens (Human), UniProt Q13976)
# Method: as §1
# JAK2(h) = JAK2(h) (Homo sapiens (Human), UniProt O60674)
# Method: as §1
# Lyn(m) = Lyn(m) (Mus musculus (Mouse), UniProt P25911)
# Method: as §1
# RIPK2(h) = RIPK2(h) (Homo sapiens (Human), UniProt O43353)
# Method: as §1
# CDK2/cyclinE(h) = CDK2/cyclinE(h) (Homo sapiens (Human), UniProt P24941)
# Method: as §1
# CDK9/cyclin T1(h) = CDK9/cyclin T1(h) (Homo sapiens (Human), UniProt P50750)
# Method: as §1
# CDKL1(h) = CDKL1(h) (Homo sapiens (Human), UniProt Q00532)
# Method: as §1
# MARK1(h) = MARK1(h) (Homo sapiens (Human), UniProt Q9P0L2)
# Method: as §1
# CHK1(h) = CHK1(h) (Homo sapiens (Human), UniProt O14757)
# Method: as §1
# SAPK4(h) = SAPK4(h) (Homo sapiens (Human), UniProt O15264)
# Method: as §1
# Met(D1246H)(h) = Met(D1246H)(h) (Homo sapiens (Human), UniProt P08581, D1228H)
# Method: as §1
# cKit(D816H)(h) = cKit(D816H)(h) (Homo sapiens (Human), UniProt P10721, D816H)
# Method: as §1
# cKit(V560G)(h) = cKit(V560G)(h) (Homo sapiens (Human), UniProt P10721, V560G)
# Method: as §1
# Mnk2(h) = Mnk2(h) (Homo sapiens (Human), UniProt Q9HBH9)
# Method: as §1
# STK32C(h) = STK32C(h) (Homo sapiens (Human), UniProt Q86UX6)
# Method: as §1
# STK33(h) = STK33(h) (Homo sapiens (Human), UniProt Q9BYT3)
# Method: as §1
# TBK1(h) = TBK1(h) (Homo sapiens (Human), UniProt Q9UHD2)
# NEK2(h) = NEK2(h) (Homo sapiens (Human), UniProt P51955)
# Method: as §1
# Wee1B(h) = Wee1B(h) (Homo sapiens (Human), UniProt P0C1S8)
# Method: as §1
# Yes(h) = Yes(h) (Homo sapiens (Human), UniProt P07947)
# Method: as §1
# FGFR2(N549H)(h) = FGFR2(N549H)(h) (Homo sapiens (Human), UniProt P21802, N549H)
# Method: as §1
# STK32C(h), sequence (Q86UX6 whole entry): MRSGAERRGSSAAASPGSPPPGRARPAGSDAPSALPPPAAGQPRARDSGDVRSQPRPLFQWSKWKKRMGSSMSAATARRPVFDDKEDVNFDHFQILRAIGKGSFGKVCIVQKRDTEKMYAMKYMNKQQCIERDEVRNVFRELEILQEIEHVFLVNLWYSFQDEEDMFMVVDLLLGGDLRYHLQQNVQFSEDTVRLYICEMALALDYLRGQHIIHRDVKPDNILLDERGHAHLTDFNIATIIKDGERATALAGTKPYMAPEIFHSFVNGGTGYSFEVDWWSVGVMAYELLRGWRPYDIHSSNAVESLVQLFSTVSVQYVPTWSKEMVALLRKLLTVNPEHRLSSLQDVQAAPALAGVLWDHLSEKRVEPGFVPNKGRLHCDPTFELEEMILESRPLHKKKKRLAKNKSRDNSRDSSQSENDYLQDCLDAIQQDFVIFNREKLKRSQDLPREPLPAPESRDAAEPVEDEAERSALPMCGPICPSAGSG
# NEK2(h), sequence (P51955 whole entry): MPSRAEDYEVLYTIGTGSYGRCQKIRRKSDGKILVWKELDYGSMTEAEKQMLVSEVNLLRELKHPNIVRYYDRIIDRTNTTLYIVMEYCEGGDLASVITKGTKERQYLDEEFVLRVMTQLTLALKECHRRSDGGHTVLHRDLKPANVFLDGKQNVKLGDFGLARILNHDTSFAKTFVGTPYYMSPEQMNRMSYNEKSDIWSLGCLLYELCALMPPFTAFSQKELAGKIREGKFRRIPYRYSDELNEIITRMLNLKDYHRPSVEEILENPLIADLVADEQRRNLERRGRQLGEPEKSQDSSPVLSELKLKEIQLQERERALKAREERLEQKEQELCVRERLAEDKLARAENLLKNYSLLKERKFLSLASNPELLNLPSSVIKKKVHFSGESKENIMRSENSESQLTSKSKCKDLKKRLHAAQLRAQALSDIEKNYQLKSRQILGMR
# MARK1(h), sequence (Q9P0L2 whole entry): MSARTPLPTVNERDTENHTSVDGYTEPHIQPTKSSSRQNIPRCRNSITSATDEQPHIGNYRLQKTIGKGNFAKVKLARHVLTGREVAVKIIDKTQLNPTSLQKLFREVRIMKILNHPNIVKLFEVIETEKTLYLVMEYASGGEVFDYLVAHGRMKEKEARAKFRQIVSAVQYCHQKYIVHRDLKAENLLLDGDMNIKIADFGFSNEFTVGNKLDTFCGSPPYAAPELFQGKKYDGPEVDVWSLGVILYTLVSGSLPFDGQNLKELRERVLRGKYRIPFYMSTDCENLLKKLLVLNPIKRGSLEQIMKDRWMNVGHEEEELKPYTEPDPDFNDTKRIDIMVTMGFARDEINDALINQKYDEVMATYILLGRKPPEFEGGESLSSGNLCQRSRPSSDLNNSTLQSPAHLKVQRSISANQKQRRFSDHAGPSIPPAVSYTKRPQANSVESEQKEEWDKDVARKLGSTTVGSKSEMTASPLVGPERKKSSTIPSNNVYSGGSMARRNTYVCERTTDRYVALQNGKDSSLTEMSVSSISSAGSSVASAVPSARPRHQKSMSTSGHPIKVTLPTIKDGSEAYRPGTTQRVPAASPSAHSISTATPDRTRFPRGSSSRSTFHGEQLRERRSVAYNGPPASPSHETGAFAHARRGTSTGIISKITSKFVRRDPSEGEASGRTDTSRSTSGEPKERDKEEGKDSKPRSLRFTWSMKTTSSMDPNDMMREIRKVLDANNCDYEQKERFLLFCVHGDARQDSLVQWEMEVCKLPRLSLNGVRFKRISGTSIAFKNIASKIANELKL
# Aurora-A(h), sequence (O14965 whole entry): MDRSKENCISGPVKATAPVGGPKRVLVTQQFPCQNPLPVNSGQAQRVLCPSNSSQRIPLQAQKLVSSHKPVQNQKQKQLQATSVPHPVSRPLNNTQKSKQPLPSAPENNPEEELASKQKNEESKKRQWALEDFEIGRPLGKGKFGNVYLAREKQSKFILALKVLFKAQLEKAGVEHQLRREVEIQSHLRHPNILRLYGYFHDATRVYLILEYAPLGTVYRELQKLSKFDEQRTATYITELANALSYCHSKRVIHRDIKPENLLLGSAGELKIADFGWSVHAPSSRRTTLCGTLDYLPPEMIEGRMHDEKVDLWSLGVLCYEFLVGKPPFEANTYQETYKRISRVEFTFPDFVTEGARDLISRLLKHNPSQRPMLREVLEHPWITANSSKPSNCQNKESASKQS
# Mnk2(h), sequence (Q9HBH9 whole entry): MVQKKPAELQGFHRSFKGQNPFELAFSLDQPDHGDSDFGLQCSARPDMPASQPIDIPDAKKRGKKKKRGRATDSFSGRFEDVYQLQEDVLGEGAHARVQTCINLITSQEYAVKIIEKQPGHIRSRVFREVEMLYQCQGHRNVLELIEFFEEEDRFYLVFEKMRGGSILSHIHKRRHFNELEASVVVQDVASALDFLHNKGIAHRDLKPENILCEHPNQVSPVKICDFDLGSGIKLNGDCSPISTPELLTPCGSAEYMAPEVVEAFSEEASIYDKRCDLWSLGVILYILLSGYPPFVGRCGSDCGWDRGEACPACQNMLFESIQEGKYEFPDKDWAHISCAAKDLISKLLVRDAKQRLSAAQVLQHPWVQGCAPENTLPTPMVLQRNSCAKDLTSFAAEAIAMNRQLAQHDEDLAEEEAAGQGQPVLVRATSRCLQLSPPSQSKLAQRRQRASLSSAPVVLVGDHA
# BIKe(h), sequence (Q9NSY1 whole entry): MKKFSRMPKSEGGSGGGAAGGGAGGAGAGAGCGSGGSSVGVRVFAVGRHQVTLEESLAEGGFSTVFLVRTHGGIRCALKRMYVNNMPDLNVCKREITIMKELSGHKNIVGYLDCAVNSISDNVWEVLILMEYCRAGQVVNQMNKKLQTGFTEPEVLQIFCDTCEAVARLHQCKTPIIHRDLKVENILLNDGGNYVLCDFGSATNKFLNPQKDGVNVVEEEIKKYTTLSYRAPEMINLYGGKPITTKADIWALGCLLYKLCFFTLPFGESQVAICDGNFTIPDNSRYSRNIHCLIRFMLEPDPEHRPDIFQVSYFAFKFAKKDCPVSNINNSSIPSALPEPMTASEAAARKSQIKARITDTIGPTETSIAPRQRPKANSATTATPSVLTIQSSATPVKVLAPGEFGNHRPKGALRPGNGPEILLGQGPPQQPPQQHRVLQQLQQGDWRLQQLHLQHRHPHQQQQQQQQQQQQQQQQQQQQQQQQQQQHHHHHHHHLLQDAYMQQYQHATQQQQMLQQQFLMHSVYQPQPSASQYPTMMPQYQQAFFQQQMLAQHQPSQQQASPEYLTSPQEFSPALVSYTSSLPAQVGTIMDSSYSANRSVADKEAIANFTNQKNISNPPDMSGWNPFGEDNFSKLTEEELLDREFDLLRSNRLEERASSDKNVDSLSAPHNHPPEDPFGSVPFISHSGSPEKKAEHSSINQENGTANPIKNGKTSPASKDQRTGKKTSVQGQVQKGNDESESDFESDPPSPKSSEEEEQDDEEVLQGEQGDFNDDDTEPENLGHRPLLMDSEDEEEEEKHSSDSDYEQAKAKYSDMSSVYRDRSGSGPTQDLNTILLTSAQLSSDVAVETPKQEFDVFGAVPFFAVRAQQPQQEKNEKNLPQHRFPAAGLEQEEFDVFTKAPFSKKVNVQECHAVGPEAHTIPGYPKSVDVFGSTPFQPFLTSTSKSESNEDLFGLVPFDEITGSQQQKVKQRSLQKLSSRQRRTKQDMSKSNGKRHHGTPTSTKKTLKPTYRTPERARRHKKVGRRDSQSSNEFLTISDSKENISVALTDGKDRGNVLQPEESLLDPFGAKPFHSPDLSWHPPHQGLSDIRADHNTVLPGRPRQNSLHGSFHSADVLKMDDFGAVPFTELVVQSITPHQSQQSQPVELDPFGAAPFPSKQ
# CDK9/cyclin T1(h), sequence (P50750 whole entry): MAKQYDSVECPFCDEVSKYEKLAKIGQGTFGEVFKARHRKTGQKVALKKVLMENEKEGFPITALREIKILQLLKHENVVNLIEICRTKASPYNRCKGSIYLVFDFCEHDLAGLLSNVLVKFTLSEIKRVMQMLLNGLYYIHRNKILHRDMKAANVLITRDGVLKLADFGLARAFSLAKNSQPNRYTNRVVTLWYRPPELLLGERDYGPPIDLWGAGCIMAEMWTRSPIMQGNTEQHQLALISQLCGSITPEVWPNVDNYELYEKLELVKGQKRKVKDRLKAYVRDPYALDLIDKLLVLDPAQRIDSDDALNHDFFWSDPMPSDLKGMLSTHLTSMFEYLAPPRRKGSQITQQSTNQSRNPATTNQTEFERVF
# CDK9/cyclin T1(h), sequence (O60563 whole entry partner): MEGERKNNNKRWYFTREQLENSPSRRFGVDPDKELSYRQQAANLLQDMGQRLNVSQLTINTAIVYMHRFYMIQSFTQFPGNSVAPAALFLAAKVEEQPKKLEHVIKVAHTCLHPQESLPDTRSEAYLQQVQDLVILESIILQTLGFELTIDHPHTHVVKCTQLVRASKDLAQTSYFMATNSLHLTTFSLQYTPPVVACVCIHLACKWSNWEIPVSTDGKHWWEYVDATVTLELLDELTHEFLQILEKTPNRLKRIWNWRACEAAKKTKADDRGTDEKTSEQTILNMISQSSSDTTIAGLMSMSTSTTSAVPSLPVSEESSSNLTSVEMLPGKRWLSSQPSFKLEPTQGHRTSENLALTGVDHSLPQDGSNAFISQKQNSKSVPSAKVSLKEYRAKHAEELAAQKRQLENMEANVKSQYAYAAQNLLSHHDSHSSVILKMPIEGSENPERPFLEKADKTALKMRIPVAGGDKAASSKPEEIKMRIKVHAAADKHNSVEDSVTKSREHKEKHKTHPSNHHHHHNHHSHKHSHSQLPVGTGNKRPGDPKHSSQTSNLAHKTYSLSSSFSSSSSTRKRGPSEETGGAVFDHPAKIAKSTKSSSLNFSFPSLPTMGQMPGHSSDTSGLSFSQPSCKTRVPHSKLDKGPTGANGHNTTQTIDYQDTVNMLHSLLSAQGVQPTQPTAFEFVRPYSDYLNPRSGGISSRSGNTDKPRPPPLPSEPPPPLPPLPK
smiles,measurement,setting,value
"C[C@H](NC(=O)c1c[nH]c2ccc(-c3ccc4nc(NC(=O)C5CC5)sc4c3)cc12)c1cccc(F)c1 [Compound 34, (S)-5-(2-(cyclopropanecarboxamido)benzo[d]thiazol-6-yl)-N-(1-(3-fluorophenyl)ethyl)-1H-indole-3-carboxamide]",Inhibition ratio,[1],34%
same,Inhibition ratio,Abl(h),102%
same,Inhibition ratio,[2],15%
same,Inhibition ratio,GRK2(h),−1%
same,Inhibition ratio,GRK3(h),−1%
same,Inhibition ratio,ALK6(h),−4%
same,Inhibition ratio,Aurora-A(h),37%
same,Inhibition ratio,PKBβ(h),12%
same,Inhibition ratio,HPK1(h),75%
same,Inhibition ratio,BIKe(h),8%
same,Inhibition ratio,PKCβI(h),27%
same,Inhibition ratio,IKKϵ(h),19%
same,Inhibition ratio,PKG1β(h),7%
same,Inhibition ratio,JAK2(h),11%
same,Inhibition ratio,Lyn(m),72%
same,Inhibition ratio,RIPK2(h),67%
same,Inhibition ratio,CDK2/cyclinE(h),9%
same,Inhibition ratio,CDK9/cyclin T1(h),41%
same,Inhibition ratio,CDKL1(h),50%
same,Inhibition ratio,MARK1(h),6%
same,Inhibition ratio,CHK1(h),2%
same,Inhibition ratio,SAPK4(h),94%
same,Inhibition ratio,Met(D1246H)(h),95%
same,Inhibition ratio,cKit(D816H)(h),44%
same,Inhibition ratio,cKit(V560G)(h),88%
same,Inhibition ratio,Mnk2(h),38%
same,Inhibition ratio,STK32C(h),3%
same,Inhibition ratio,STK33(h),4%
same,Inhibition ratio,TBK1(h),53%
same,Inhibition ratio,NEK2(h),21%
same,Inhibition ratio,Wee1B(h),−2%
same,Inhibition ratio,Yes(h),85%
same,Inhibition ratio,FGFR2(N549H)(h),86%
"C[C@H](NC(=O)c1cn(C)c2ccc(-c3ccn4nc(NC(=O)C5CC5)nc4c3)cc12)c1cccc(F)c1 [Compound 94, (S)-5-(2-(cyclopropanecarboxamido)-[1,2,4]triazolo[1,5-a]pyridin-7-yl)-N-(1-(3-fluorophenyl)ethyl)-1-methyl-1H-indole-3-carboxamide]",Inhibition ratio/%,[1],24%
same,Inhibition ratio/%,Abl(h),32%
same,Inhibition ratio/%,[2],10%
same,Inhibition ratio/%,GRK2(h),53%
same,Inhibition ratio/%,GRK3(h),−12%
same,Inhibition ratio/%,ALK6(h),−5%
same,Inhibition ratio/%,Aurora-A(h),−7%
same,Inhibition ratio/%,PKBβ(h),−8%
same,Inhibition ratio/%,HPK1(h),−3%
same,Inhibition ratio/%,BIKe(h),−2%
same,Inhibition ratio/%,PKCβI(h),6%
same,Inhibition ratio/%,IKKϵ(h),−15%
same,Inhibition ratio/%,PKG1β(h),0%
same,Inhibition ratio/%,JAK2(h),45%
same,Inhibition ratio/%,Lyn(m),19%
same,Inhibition ratio/%,RIPK2(h),−7%
same,Inhibition ratio/%,CDK2/cyclinE(h),36%
same,Inhibition ratio/%,CDK9/cyclin T1(h),61%
same,Inhibition ratio/%,CDKL1(h),35%
same,Inhibition ratio/%,MARK1(h),−13%
same,Inhibition ratio/%,CHK1(h),−2%
same,Inhibition ratio/%,SAPK4(h),12%
same,Inhibition ratio/%,Met(D1246H)(h),34%
same,Inhibition ratio/%,cKit(D816H)(h),42%
same,Inhibition ratio/%,cKit(V560G)(h),65%
same,Inhibition ratio/%,Mnk2(h),51%
same,Inhibition ratio/%,STK32C(h),22%
same,Inhibition ratio/%,STK33(h),23%
same,Inhibition ratio/%,TBK1(h),13%
same,Inhibition ratio/%,NEK2(h),24%
same,Inhibition ratio/%,Wee1B(h),−2%
same,Inhibition ratio/%,Yes(h),29%
same,Inhibition ratio/%,FGFR2(N549H)(h),12%
